Measured values reported in the supplement of paper PMC8149375.

Tests used:
Settings in all cases: treatment: drug + dasatinib (fixed dose, not stated); 5 days
[1] = tested on: 786-O; experiment: GI50 of drug in presence of dasatinib; higher = less potent
Description: (§1)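 Primary HTS combination arm: 8 RCC cell lines treated with 8 doses (up to 10 uM) of each library drug plus a fixed dose of dasatinib (dose not stated) for 5 days; viability read by CellTiter-Glo and normalised to DMSO. GI50 was fitted with XLfit, AUC is the area under the dose-response curve, and minimum viability is the lowest fraction of DMSO viability across doses.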

[2] = tested on: UO-31; experiment: as above
Description: as §1

[3] = tested on: SN12C; experiment: as above
Description: as §1

[4] = tested on: 769-P; experiment: as above
Description: as §1

[5] = tested on: CAKI-1; experiment: as above
Description: as §1

[6] = tested on: A498; experiment: as above
Description: as §1

[7] = tested on: TK-10; experiment: as above
Description: as §1

[8] = tested on: ACHN; experiment: as above
Description: as §1

[9] = tested on: 786-O; experiment: minimum viability across doses, drug + dasatinib, relative to DMSO (fraction); higher = less growth inhibition
Description: as §1

[10] = tested on: UO-31; experiment: as above
Description: as §1

[11] = tested on: SN12C; experiment: as above
Description: as §1

[12] = tested on: 769-P; experiment: as above
Description: as §1

[13] = tested on: CAKI-1; experiment: as above
Description: as §1

[14] = tested on: A498; experiment: as above
Description: as §1

[15] = tested on: TK-10; experiment: as above
Description: as §1

[16] = tested on: ACHN; experiment: as above
Description: as §1

[17] = tested on: 786-O; experiment: AUC of dose-response viability curve, drug + dasatinib, normalised to DMSO (arbitrary (AUC of normalised viability)); higher = less growth inhibition
Description: as §1

[18] = tested on: UO-31; experiment: as above
Description: as §1

[19] = tested on: SN12C; experiment: as above
Description: as §1

[20] = tested on: 769-P; experiment: as above
Description: as §1

[21] = tested on: CAKI-1; experiment: as above
Description: as §1

[22] = tested on: A498; experiment: as above
Description: as §1

[23] = tested on: TK-10; experiment: as above
Description: as §1

[24] = tested on: ACHN; experiment: as above
Description: as §1

Row | SMILES | GI50 of drug [1] [nM] | GI50 of drug [2] [nM] | GI50 of drug [3] [nM] | GI50 of drug [4] [nM] | GI50 of drug [5] [nM] | GI50 of drug [6] [nM] | GI50 of drug [7] [nM] | GI50 of drug [8] [nM] | minimum viability across doses [9] | minimum viability across doses [10] | minimum viability across doses [11] | minimum viability across doses [12] | minimum viability across doses [13] | minimum viability across doses [14] | minimum viability across doses [15] | minimum viability across doses [16] | AUC of dose-response viability curve [17] | AUC of dose-response viability curve [18] | AUC of dose-response viability curve [19] | AUC of dose-response viability curve [20] | AUC of dose-response viability curve [21] | AUC of dose-response viability curve [22] | AUC of dose-response viability curve [23] | AUC of dose-response viability curve [24]
1 | Cc1ccc(S(=O)(=O)Nc2nc3ccccc3nc2Nc2ccc3nsnc3c2)cc1 [XL147] + Cc1nc(Nc2ncc(C(=O)Nc3c(C)cccc3Cl)s2)cc(N2CCN(CCO)CC2)n1 [dasatinib] | > 10000 | > 10000 | > 10000 | > 10000 | > 10000 | > 10000 | > 10000 | > 10000 | 0.642 | 0.909 | 0.651 | 0.634 | 0.764 | 0.924 | 0.743 | 0.551 | 2.67 | 3.44 | 2.42 | 2.42 | 2.82 | 3.43 | 2.87 | 2.12
2 | O=C(NC1CCNCC1)c1n[nH]cc1NC(=O)c1c(Cl)cccc1Cl [AT7519] + Cc1nc(Nc2ncc(C(=O)Nc3c(C)cccc3Cl)s2)cc(N2CCN(CCO)CC2)n1 [dasatinib] | 218 | 864 | 435 | 1130 | 347 | 337 | 610 | 271 | 0.00538 | 0.00867 | 0.00559 | 0.0219 | 0.0385 | 0.00778 | 0.179 | 0.00318 | 1.52 | 2.79 | 1.59 | 2.02 | 1.64 | 2.2 | 2.09 | 1.44
3 | CCS(=O)(=O)Nc1ccc2c(c1)/C(=C(/Nc1ccc(CN3CCCCC3)cc1)c1ccccc1)C(=O)N2 [Hesperadin] + Cc1nc(Nc2ncc(C(=O)Nc3c(C)cccc3Cl)s2)cc(N2CCN(CCO)CC2)n1 [dasatinib] | 46.6 | 357 | 82.6 | 327 | 45.5 | 441 | 713 | 14.7 | 0.0121 | 0.0118 | 0.00226 | 0.0628 | 0.0323 | 0.109 | 0.0643 | 0.00666 | 1.2 | 2.5 | 1.26 | 1.86 | 1.15 | 2.05 | 2.17 | 1.18
4 | CC1(C)CCC(CN2CCN(c3ccc(C(=O)NS(=O)(=O)c4ccc(NCC5CCOCC5)c([N+](=O)[O-])c4)c(Oc4cnc5[nH]ccc5c4)c3)CC2)=C(c2ccc(Cl)cc2)C1 [ABT-199 (GDC-0199 )] + Cc1nc(Nc2ncc(C(=O)Nc3c(C)cccc3Cl)s2)cc(N2CCN(CCO)CC2)n1 [dasatinib] | > 10000 | > 10000 | > 10000 | > 10000 | > 10000 | > 10000 | > 10000 | > 10000 | 0.586 | 1 | 0.68 | 0.692 | 0.592 | 0.899 | 0.61 | 0.542 | 2.43 | 3.9 | 2.51 | 2.58 | 2.29 | 3.56 | 2.39 | 2.01
5 | Cc1n[nH]c2ccc(-c3cncc(OC[C@@H](N)Cc4ccccc4)c3)cc12 + Cc1nc(Nc2ncc(C(=O)Nc3c(C)cccc3Cl)s2)cc(N2CCN(CCO)CC2)n1 [dasatinib] | 656 | 984 | 1530 | 1050 | 224 | 1260 | 1130 | 85.7 | 0.0069 | 0.00975 | 0.0087 | 0.00989 | 0.0702 | 0.012 | 0.166 | 0.00362 | 1.77 | 1.97 | 1.9 | 1.98 | 1.57 | 2.92 | 2.16 | 1.42
6 | CC(C)NC[C@@H](C(=O)N1CCN(c2ncnc3c2[C@H](C)C[C@H]3O)CC1)c1ccc(Cl)cc1 [GDC-0068] + Cc1nc(Nc2ncc(C(=O)Nc3c(C)cccc3Cl)s2)cc(N2CCN(CCO)CC2)n1 [dasatinib] | 24.5 | 4910 | > 10000 | > 10000 | 1750 | > 10000 | 1190 | 6.5 | 0.21 | 0.0701 | 0.563 | 0.628 | 0.311 | 0.74 | 0.292 | 0.247 | 1.4 | 4.11 | 2.39 | 2.59 | 2.12 | 3.38 | 2.07 | 1.43
7 | COc1cc2ncnc(Nc3ccc(O)c(Br)c3)c2cc1OC [WHI-P154] + Cc1nc(Nc2ncc(C(=O)Nc3c(C)cccc3Cl)s2)cc(N2CCN(CCO)CC2)n1 [dasatinib] | > 10000 | > 10000 | > 10000 | 2580 | 2980 | > 10000 | 1920 | 33.7 | 0.547 | 1.22 | 0.603 | 0.348 | 0.211 | 0.937 | 0.422 | 0.218 | 2.26 | 5.45 | 2.51 | 2.22 | 2.26 | 3.93 | 2.16 | 1.42
8 | CC1(COc2ccc3c(c2)ncn3-c2ccc3cccc(N4CCC(N)CC4)c3n2)COC1 + Cc1nc(Nc2ncc(C(=O)Nc3c(C)cccc3Cl)s2)cc(N2CCN(CCO)CC2)n1 [dasatinib] | 102 | 2230 | 1280 | 1710 | 928 | 2540 | 3330 | 1920 | 0.00575 | 0.0108 | 0.0349 | 0.222 | 0.192 | 0.0198 | 0.181 | 0.0128 | 1.64 | 2.77 | 2.14 | 1.8 | 1.9 | 2.83 | 2.42 | 1.96
9 | CN(c1ncccc1CNc1nc(Nc2ccc3c(c2)CC(=O)N3)ncc1C(F)(F)F)S(C)(=O)=O.O=S(=O)(O)c1ccccc1 + Cc1nc(Nc2ncc(C(=O)Nc3c(C)cccc3Cl)s2)cc(N2CCN(CCO)CC2)n1 [dasatinib] | 222 | 3010 | 4150 | 1560 | 966 | 3510 | 3290 | 96.6 | 0.00638 | 0.0198 | 0.012 | 0.0401 | 0.039 | 0.015 | 0.15 | 0.0114 | 1.6 | 3.91 | 2.16 | 1.93 | 1.98 | 3.75 | 2.28 | 1.66
10 | O=c1c(O)c(-c2ccc(O)c(O)c2)oc2cc(O)cc(O)c12 [Quercetin (Sophoretin)] + Cc1nc(Nc2ncc(C(=O)Nc3c(C)cccc3Cl)s2)cc(N2CCN(CCO)CC2)n1 [dasatinib] | > 10000 | > 10000 | > 10000 | > 10000 | > 10000 | > 10000 | > 10000 | > 10000 | 0.45 | 0.844 | 0.692 | 0.618 | 0.576 | 0.879 | 0.67 | 0.56 | 1.89 | 3.51 | 2.52 | 2.42 | 2.35 | 3.26 | 2.47 | 2.14
11 | CC(=O)Nc1nc(C)c(-c2ccc(Cl)c(S(=O)(=O)NCCO)c2)s1 [PIK-93] + Cc1nc(Nc2ncc(C(=O)Nc3c(C)cccc3Cl)s2)cc(N2CCN(CCO)CC2)n1 [dasatinib] | 135 | 4320 | 1890 | 4000 | 1170 | 8110 | 3690 | 976 | 0.127 | 0.0793 | 0.259 | 0.352 | 0.068 | 0.476 | 0.251 | 0.188 | 1.49 | 3.76 | 2.14 | 2.31 | 2.05 | 3.29 | 2.31 | 1.75
12 | Oc1cccc(-c2nc(N3CCOCC3)c3oc4ncccc4c3n2)c1 [PI-103] + Cc1nc(Nc2ncc(C(=O)Nc3c(C)cccc3Cl)s2)cc(N2CCN(CCO)CC2)n1 [dasatinib] | 73.1 | 115 | 156 | 461 | 322 | 386 | 389 | 31.4 | 0.0069 | 0.00638 | 0.116 | 0.0372 | 0.0121 | 0.111 | 0.0871 | 0.0522 | 1.43 | 1.49 | 1.57 | 1.84 | 1.63 | 2.06 | 1.86 | 1.2
13 | COc1cc2nccc(Oc3ccc(NC(=O)Nc4ccc(F)cc4F)c(F)c3)c2cc1OC [Ki8751] + Cc1nc(Nc2ncc(C(=O)Nc3c(C)cccc3Cl)s2)cc(N2CCN(CCO)CC2)n1 [dasatinib] | 8550 | > 10000 | > 10000 | 1090 | 1410 | > 10000 | > 10000 | 1280 | 0.483 | 0.735 | 0.546 | 0.304 | 0.154 | 1.04 | 0.683 | 0.352 | 2.33 | 3.73 | 2.37 | 2.15 | 1.95 | 4.09 | 2.6 | 1.89
14 | COc1cccc2cc(-c3nc([C@H]4CC[C@H](C(=O)O)CC4)n4ncnc(N)c34)[nH]c12 [OSI-027] + Cc1nc(Nc2ncc(C(=O)Nc3c(C)cccc3Cl)s2)cc(N2CCN(CCO)CC2)n1 [dasatinib] | 252 | 2240 | 1110 | 2380 | 341 | 4020 | 1100 | 322 | 0.0675 | 0.00633 | 0.15 | 0.227 | 0.0226 | 0.139 | 0.152 | 0.0877 | 1.84 | 2.91 | 2.05 | 2.25 | 1.65 | 3.08 | 2.23 | 1.67
